Results on three compounds are retold here after patent US11279079B2, “Cell electrochemical sensor based on 3D printing technology and application thereof” (Jiangnan University, priority 2020, dated 2022).

For data set [1] the following is noted: pigs, in vivo; cited from earlier work.
Data set [2] relates to lung adenocarcinoma epithelial cells A549. Nature of the data set: Cell electrochemical sensor (3D-printed A549/carbon nanofiber/GelMA on screen-printed carbon electrode), EIS cytotoxicity and combination index evaluation. The format is cell-based, human. The note with it: for IC50 value measured by the EIS method: A549 cell sensor of example 1, 24 hours toxin stimulation, single toxin or combined effect; for impedance value of the cell sensor with increasing dose: concentration range of 0.1-5 μg/mL, 24 hours. How it is done: In an embodiment of the disclosure, the cell sensor needs to be incubated before application, and specific operations comprise: dropping a DMEM cell culture medium at a working electrode of a screen-printed carbon electrode to ensure that the culture medium can cover a cell/carbon nanofiber/GelMA complex on the working electrode to provide cells with nutrients needed for growth, and then placing the working electrode in an incubator with the carbon dioxide concentration of 5% and the humidity of 95% for incubation at 37° C. for 6-12 hours; after incubation, removing the original culture medium on the working electrode, diluting toxin standard substances with the DMEM cell culture medium into gradient concentration solutions, dropping the gradient concentration solutions on the working electrode printed with cells, and then carrying out electrochemical detection after placing the working electrode in the incubator for effect for 24 hours.
In an embodiment of the disclosure, the method uses a modified screen-printed carbon electrode as a sensing interface, a PET material is used as a substrate, the working electrode is composed of carbon, the reference electrode is composed of silver/silver chloride, the counter electrode is composed of carbon, electrochemical detection adopts electrochemical impedance spectroscopy (EIS) to test electrical signal changes of cells stimulated by toxins, the initial potential is 0.2 V, and the frequency range is 1 Hz-10^5 Hz.
In an embodiment of the disclosure, the electrochemical AC impedance method (EIS) measures the signals obtained by the electrochemical sensor stimulated by different concentrations of toxins, the impedance value is calculated by fitting the equivalent circuit with Zview software, the cell viability inhibition rates of different concentrations of toxins are calculated, and the calculation method is as follows: […]
(1) Drug stimulation: An original culture medium on a working electrode is removed, toxin standard substances are diluted with a DMEM cell culture medium into gradient concentration solutions, and then 150 μL of DON toxin solutions in the concentration range of 0.1, 0.2, 0.5, 1, 2 and 5 μg/mL, 150 μL of 15-ADON toxin solutions in the concentration range of 0.1, 0.2, 0.5, 1, 2 and 5 μg/mL and 150 μL of DON+15-ADON toxin solutions in the concentration range of 0.1+0.1, 0.2+0.2, 0.5+0.5, 1+1, 2+2 and 5+5 μg/mL are taken and dropped on the working electrode printed with cells respectively, the working electrode is placed in an incubator for effect for 24 hours, and corresponding impedance values are measured. […]

For the compound `CC(=O)O[C@@H]1C[C@]2(C)[C@@]3(CO)[C@H](O)C(=O)C(C)=C[C@H]3O[C@H]1[C@@]21CO1` [3-ADON], the “conversion into DON in blood” value in data set [1] was “quickly converted into DON”. In the case of `CC(=O)OC[C@]12[C@H](O)C(=O)C(C)=C[C@H]1O[C@@H]1[C@H](O)C[C@@]2(C)[C@]12CO2` [15-ADON, 15-acetyl-deoxynivalenol], in data set [2], the “IC50 value measured by the EIS method” value turned out to be 1.2560 µg/mL and the “impedance value of the cell sensor with increasing dose” value is “gradually reduced”.

Regarding `CC1=C[C@H]2O[C@@H]3[C@H](O)C[C@](C)([C@@]2(CO)[C@H](O)C1=O)[C@]31CO1` [DON, deoxynivalenol], in data set [2], the “IC50 value measured by the EIS method” value amounted to 0.9281 µg/mL and the “impedance value of the cell sensor with increasing dose” value was “gradually reduced”.
